From US20140199372A1, “MICROBIAL GROWTH FACTORS” (NORTHEASTERN UNIVERSITY, priority 2011, published 2014)
Like-named read-outs stand apart in the source and are kept apart here.

Tests used:
KLE1280 = assay: Induction of growth of KLE1280 by quinones on plates; format: cell-based, Porphyromonas sp. KLE1280
Experimental: Serial dilutions of dental plaque from a healthy individual were spread onto Fastidious Anaerobe Agar plates containing 5% sheep blood and 5% pooled human saliva (FBS) and incubated anaerobically. Small colonies growing next to large ones on dense plates were picked and spread onto fresh FBS plates. A helper mix of colonies growing around individual small colonies was spotted on these plates. Isolates were identified that depended for growth on this mix. If E. coli produces a growth factor, its identification can be efficiently performed, since a complete knockout library of this species is available. Testing knockout mutants identifies those that lost their ability to help growth of the uncultured organism, which then leads to the identification of the biosynthetic pathway of the growth factor. […] This organism is closely related to Porphyromonas sp. oral taxon 279 (99% similarity by 16S rRNA gene sequencing) (96% similarity to closest type strain Porphyromonas catoniae). In particular, KLE1280 is closely related to Porphyromonas catoniae (96% similarity by 16S rRNA gene sequencing). […] This deletion mutant has the menaquinone biosynthesis genes deleted. […] 5 genes in the menaquinone biosynthesis pathway are knocked out in this mutant (http://www.shigen.nig.ac.jp/ecoli/pec/quickSearch.List.DeletionsDetailAction.do?fromListFlag=true&classId=4&deId=226). E. coli strains with single gene deletions in the menaquinone biosynthesis pathway were tested for induction of growth.
Different quinones (Q), commercially available and/or isolated from E. coli and Micrococcus luteus were tested for induction of growth of KLE1280.
Different concentrations of MK4 were spotted on media with and without blood (5%) or hemin (10 μg/ml) or hemoglobin (100 μg/ml).

Flaviramulus sp. KLE1215 = assay: Growth of KLE1215 in liquid culture with quinones delivered in liposomes; format: cell-based; settings: R2A broth, 50% artificial sea salts, 0.001% Fe(II), MK4 250 μM to 1.5 mM, MK6 and MK6 chromenols purified from KLE1215
Experimental: The growth of Flaviramulus sp. KLE1215 is enhanced by the addition of purified quinone-like compounds when they are delivered in liposomes. […] Growth of KLE1215 induced with varying concentrations of MK4 delivered in liposomes. 5 ml liquid cultures of KLE1215 were set up with no supplement (squares), empty liposomes as liposome control (triangles), liposomes loaded with 250 μM MK4 (cross), liposomes loaded with 500 μM MK4 liposomes (asterisk), liposomes loaded with 750 μM MK4 (circle), liposomes loaded with 1 mM MK4 (vertical line), liposomes loaded with 1.25 mM MK4 (dark line), and liposomes loaded with 1.5 mM MK4 (light line) is shown in FIG. 8. […] broth (without yeast extract) with 50% artificial sea salts supplemented with 0.001% Fe(II) was used for these cultures. Values represent the average of two independent cultures of KLE1215 in […] broth with 50% artificial sea salts supplemented with 0.001% Fe(II). […] 5 ml liquid cultures of KLE1215 were prepared with nothing added (squares), empty liposome as liposome control (triangles), liposomes loaded with MK6 from KLE1215 (cross), and liposomes loaded with MK6 chromenols from KLE1215 (asterisk). R2A broth (without yeast extract) with 50% artificial sea salts supplemented with 0.001% Fe(II) was used for these cultures. Values represent the average of independent cultures of KLE1215 in […] broth with 50% artificial sea salts supplemented with 0.001% Fe(II).

Bizinio sp. KLE1402 = assay: Growth of KLE1402 in liquid culture with quinone-loaded liposomes; format: cell-based; settings: delivered by liposomes loaded with 500 μM MK4; R2A broth, 50% sea salts, 0.001% Fe(II)
From the text: Two isolates were streaked for isolation; the culturable helper on the left induces the growth of unculturable KLE1402 on the right only when it is close proximity. The closest relative to the dependent KLE1402 is Bizionia echini (96.6% Identity according to 16S rRNA gene sequence), from the family Flavobacteriaceae. The closest relative to the helper KLE1403 is Ruegeria lacuscaerulensis (98.4% identity by 16S rRNA gene sequence), from the class Alphaproteobacteria. E. coli induces the growth of KLE1402 (FIG. 11). KLE1402 spread evenly on R2A with 50% artificial sea salts and 0.001% Fe(II) with a dense spot of E. coli. […] KLE1402 spread evenly on R2A with 50% artificial sea salts and 0.001% Fe(II) with a dense spot of E. coli ΔubiG. KLE1402 grows with the addition of quinone-loaded liposomes (FIG. 13). Cells of KLE1402 were used to inoculate culture tubes with 5 ml R2A broth with 50% sea salts and 0.001% Fe(II). Tube A: no supplement, Tube B: Empty liposomes added, Tube C: Liposomes loaded with 500 μM MK4 added. KLE1402 grows with the addition of quinone-loaded liposomes (FIG. 14). 5 ml liquid cultures of KLE1402 were set up with no supplement (squares), empty liposomes as liposome control (triangles), liposomes loaded with 500 μM MK4 (cross). R2A broth with 50% artificial sea salts supplemented with 0.001% Fe(II) was used as media for these cultures. […]

[1] = quinone isolated from M. luteus

## O=C(O)c1cc(O)c2ccccc2c1O [DHNA, 1,4-dihydroxy-2-naphthoate]
KLE1280
  induction of growth of KLE1280: showed induction of growth

## CC(C)=CCC/C(C)=C/CC/C(C)=C/CC/C(C)=C/CC1=C(C)C(=O)c2ccccc2C1=O [Menaquinone4]
KLE1280
  induction of growth of KLE1280: induced growth
KLE1280; quinone commercially available
  Results: induction of growth of KLE1280: Induction
KLE1280; [1]
  Results: induction of growth of KLE1280: Induction
KLE1280; spotted on media with blood (5%) or hemin (10 μg/ml) or hemoglobin (100 μg/ml)
  induction of growth of KLE1280: induced growth only in the presence of either of these 3 in the medium
KLE1280; substance alone
  induction of growth of KLE1280: did not induce growth
Flaviramulus sp. KLE1215
  growth of KLE1215: growth-enhancing effects
Bizinio sp. KLE1402
  growth of KLE1402: can induce the growth

## CC(C)=CCC/C(C)=C/CC/C(C)=C/CC/C(C)=C/CC/C(C)=C/CC1=C(C)C(=O)c2ccccc2C1=O [Menaquinone5]
KLE1280; [1]
  Results: induction of growth of KLE1280: Induction

## CC(C)=CCC/C(C)=C/CC/C(C)=C/CC/C(C)=C/CC/C(C)=C/CC/C(C)=C/CC1=C(C)C(=O)c2ccccc2C1=O [Menaquinone6]
KLE1280; [1]
  Results: induction of growth of KLE1280: Induction
Flaviramulus sp. KLE1215
  growth of KLE1215: growth-enhancing effects

## CC(C)=CCC/C(C)=C/CC/C(C)=C/CC/C(C)=C/CC/C(C)=C/CC/C(C)=C/CC/C(C)=C/CC1=C(C)C(=O)c2ccccc2C1=O [Menaquinone7]
KLE1280; [1]
  Results: induction of growth of KLE1280: Very less induction (late)

## CC(C)=CCC/C(C)=C/CC/C(C)=C/CC/C(C)=C/CC/C(C)=C/CC/C(C)=C/CC/C(C)=C/CC/C(C)=C/CC1=C(C)C(=O)c2ccccc2C1=O [Menaquinone8]
KLE1280; quinone isolated from E. coli
  Results: induction of growth of KLE1280: No induction
KLE1280; [1]
  Results: induction of growth of KLE1280: Very less induction (late)

## COC1=C(OC)C(=O)C(CC=C(C)C)=C(C)C1=O [Q1]
KLE1280; quinone commercially available
  Results: induction of growth of KLE1280: No induction

## COC1=C(OC)C(=O)C(C/C=C(\C)CCC=C(C)C)=C(C)C1=O [Q2]
KLE1280; quinone commercially available
  Results: induction of growth of KLE1280: No induction

## COC1C(=O)C(C)=C(C/C=C(\C)CC/C=C(\C)CC/C=C(\C)CCC=C(C)C)C(=O)C1OC (stereo not drawn) [Q4]
KLE1280; quinone commercially available
  Results: induction of growth of KLE1280: No induction

## COC1=C(OC)C(=O)C(C/C=C(\C)CC/C=C(\C)CC/C=C(\C)CC/C=C(\C)CC/C=C(\C)CC/C=C(\C)CC/C=C(\C)CC/C=C(\C)CCC=C(C)C)=C(C)C1=O [Q9]
KLE1280; quinone commercially available
  Results: induction of growth of KLE1280: No induction

## COC1=C(OC)C(=O)C(C/C=C(\C)CC/C=C(\C)CC/C=C(\C)CC/C=C(\C)CC/C=C(\C)CC/C=C(\C)CC/C=C(\C)CC/C=C(\C)CC/C=C(\C)CCC=C(C)C)=C(C)C1=O [Q10]
KLE1280; quinone commercially available
  Results: induction of growth of KLE1280: No induction

## COC1=C(OC)C(=O)C(C/C=C(\C)CC/C=C(\C)CC/C=C(\C)CC/C=C(\C)CC/C=C(\C)CC/C=C(\C)CCC=C(C)C)=C(C)C1=O [Ubiquinone7]
KLE1280; quinone isolated from E. coli
  Results: induction of growth of KLE1280: No induction

## COC1=C(OC)C(=O)C(C/C=C(\C)CC/C=C(\C)CC/C=C(\C)CC/C=C(\C)CC/C=C(\C)CC/C=C(\C)CC/C=C(\C)CCC=C(C)C)=C(C)C1=O [Ubiquinone8]
KLE1280; quinone isolated from E. coli
  Results: induction of growth of KLE1280: No induction

## hemin
KLE1280; substance alone
  induction of growth of KLE1280: did not induce growth

## hemoglobin
KLE1280; substance alone
  induction of growth of KLE1280: did not induce growth

## menachromenal 6 [MK6 chromenols]
Flaviramulus sp. KLE1215
  growth of KLE1215: growth-enhancing effects
